This assay concerns cell surface receptors of immune cells (ACS). Nature of the assay: Adsorption of enzyme fragmented dHSA on affinity column with biotinylated cell surface proteins (ACS), MALDI-TOF ms. It is filed as binding, human. Conditions: for Per cent adsobed: Table 6 A, molecular weight 700-3600 Da. As to the method: Based on the observation that immunoregulatory peptide sequences are present in serum albumin, there is the possibility that other sequences than the epitope of mAb A have immunoregulatory function. Therefore an artificial cell surface (ACS) was prepared as described in materials and methods. […]
To remove unfragmented albumin and enzyme, the sample was ultra filtered through an Amicon Ultra 4 (mw cut-off of 5000) or a Centriplus (mw cut-off 10000) centrifugal filter (Millipore AB, Solna, Sweden). The filtrate, containing fragmented dHSA without enzymes, was collected and diluted with PBS with Ca and Mg (GIBCO).
Buffy coats generated from 450 ml blood each was collected from 4 healthy donors. Erythrocytes were removed by sedimentation on 2% dextran T500 solution (Amersham Pharmacia Biotech AB, Uppsala Sweden) in 0.9% NaCl. Mononuclear cells (PBMC) were then isolated by Ficoll-Paque Plus (GE Healthcare Bioscience AB Sweden) density gradient centrifugation. The PBMC were then suspended in phosphate buffered saline (PBS) containing Ca and Mg (GIBCO) at a concentration of 10×10^6/ml. EZ Link Sulfo-NHS-biotin (Pierce USA) was added at a final concentration of 0.2 mg/ml and the mixture incubated on a shaker at room temperature for 10 min. Excess biotin was then removed by washing the PBMC in PBS. Biotinylated PBMC were then lysed by adding 1.0 ml ice-cold lysing buffer (50 mM Tris-HCL, pH 7.5, with 0.15 M NaCl, 5 mM MgCl2 containing 100 mM Octyl glucoside and 1 mM Phenylmethylsulfonyl fluoride) per 2×10^7 pelleted cells with gentle shaking, then incubated for 30 min. on ice. Debris was removed by centrifugation at 5000×g at 4° C. for 10 min and the supernatants was collected and pooled from all four donors. The lysate was then stored at −70° C. in polypropylene plastic tubes.
This amount of lysate corresponds to 36×10^7 mononuclear cells. It was added to a 1 ml Hitrap Streptavidin HP affinity column (Amersham Biosciences). To block possible remaining free biotin, 5 ml of 0.1 M glycine (Sigma) was added to the column. Unsaturated streptavidin on the column was then reacted with 150 ug biotin (Sigma) in binding buffer. The column was carefully washed with PBS and stored in PBS with 0.1% NaN3 at 4° C. until use.
27 ml biotinylated cell lysate in binding buffer (corresponding to 54×10^7 mononuclear cells) was added to 1.5 ml washed Streptavidin Sepharose HP (Amersham Biosciences). To block possible remaining free biotin, 25 ml of 0.1 M glycine (Sigma) was added to the Streptavidin Sepharose. Unsaturated streptavidin was then reacted with 225 μg biotin (Sigma) in binding buffer. The Streptavidin Sepharose was carefully washed in PBS. One ml of the biotinylated cell lysate coupled Streptavidin Sepharose was then packed in an empty column (Tricorn Empty High Performance Column, Amersham Bioscience) and washed with phosphate buffered saline (PBS) containing Ca and Mg (GIBCO).
The flow-through was collected with consideration taken to void volume and dilution of adsorbed sample by collecting in small portions of 0.2 ml. Thirty ul of each sample, including a control sample that has not been adsorbed, were dried in a Speed-Vac centrifuge.
Dried samples were reconstituted in 10 ul of 0.1% TFA. Zip Tip pipette tips (Millipore, USA) containing C18 reversed-phase media were used for desalting reconstituted samples. […] For the analysis of samples in the mass range 1500-9000 Da, one μl of each Zip Tip eluted sample was mixed with 1 μl of sinapinic acid ([…]). […] Mass identity search of resulting spectra was performed in the SwissProt or NCBI databases using MS-Fit.

Setting [1] is: Table 5 A, peptides generated by trypsin degradation of dHSA.
The mark [2] stands for this setting: Table 6 B, ASP-DHSA, molecular weight 3200-9000 Da.

Where “and” joins values, the source holds several entries; their conditions need not be identical. Identical values can stand only once.

“FKDLGEENFK [(R)FKDLGEENFK (A), tryptic peptide of dHSA]” gave a Per cent adsorbed under setting [1] of 0.08 Per cent.

Substance “DRVTKCCTESLVNRRPCFSALEV [ASP-N fragment of dHSA]” returned a Per cent adsobed (ASP-DHSA) of 0.87 Per cent.

“AAFTECCQAADK [(K)AAFTECCQAADK (A), tryptic peptide of dHSA]”: the Per cent adsorbed under setting [1] is listed as 0.29 Per cent.

As to “DSISSKLKECCEKPLLEKSHCIAEVEN [ASP-N fragment of dHSA]”, the Per cent adsobed (ASP-DHSA) is 0.65 Per cent. In turn, “YSVVLL LRLAKTYETT LEKCCAAADP HECYAKVF (YSVVLLLRLAKTYETTLEKCCAAADPHECYAKVF; HOMO SAPIENS) [ASP-N fragment of dHSA]” had a Per cent adsorbed under setting [2] of 1.00 Per cent. As to “VPQVSTPTLVEVSR [tryptic peptide of dHSA]”, under setting [1], the Per cent adsorbed is recorded as 0.59 Per cent. For the substance “RVTKC CTESLVNRRPCFSALEVDETYVPKEFNAETFTFHA (RVTKCCTESLVNRRPCFSALEVDETYVPKEFNAETFTFHA; HOMO SAPIENS) [ASP-N fragment of dHSA]”, under setting [2], the Per cent adsorbed was 1.00 Per cent. Under setting [1], “VHTECCHGDLLECADDR [tryptic peptide of dHSA]” yielded a Per cent adsorbed of 0.13 Per cent. “ETYGEMADCCAK [106-117, tryptic peptide of dHSA]” gave a Per cent adsorbed under setting [1] of -0.08 Per cent.

With “QEPERNECFLQHK [(K)QEPERNECFLQHK (D), tryptic peptide of dHSA]”, the Per cent adsorbed under setting [1] was 0.26 Per cent and 0.18 Per cent. Where the note is “ASP-DHSA”, “DHVKLVNEVTEFAKTCVA [ASP-N fragment of dHSA]” had a Per cent adsobed of 1.00 Per cent. “DETYVPKEFNAETFTHA [ASP-N fragment of dHSA]” displayed a Per cent adsobed (ASP-DHSA) of 0.86 Per cent. Under setting [2], “VF LGMFLYEYARRHPDYSVVLLLRLAKTYETTLEKCCAAA (VFLGMFLYEYARRHPDYSVVLLLRLAKTYETTLEKCCAAA; HOMO SAPIENS) [ASP-N fragment of dHSA]” had a Per cent adsorbed of 1.00 Per cent. Substance “AVMDDFAAFVEK [570-581, tryptic peptide of dHSA]” returned a Per cent adsorbed under setting [1] of 0.23 Per cent.

On to “ICTLSEKERQIKKQ TALVELVKHK PKATKEQLKA VM (ICTLSEKERQIKKQTALVELVKHKPKATKEQLKAVM) [ASP-N fragment of dHSA]”, for which the Per cent adsorbed under setting [2] is 1.00 Per cent. Under setting [1], “LKECCEKPLLEK [299-310, tryptic peptide of dHSA]” returned a Per cent adsorbed of 0.36 Per cent. On to “SISSKLKECCEKPLLEK SHClAEVEN DEMPA (SISSKLKECCEKPLLEKSHCIAEVENDEMPA; HOMO SAPIENS) [ASP-N fragment of dHSA]”, for which the “binding to ACS” value (asparaginase degraded dHSA) was “contradictory results”. With “YKAAFTECCQAADK [tryptic peptide of dHSA]”, under setting [1], the Per cent adsorbed was -0.37 Per cent. The same measure, in the same setting: the result for “NECFLQHK [(R)NECFLQHK (D), tryptic peptide of dHSA]” reads 0.22 Per cent; that for “SLHTLFGDK [089-097, tryptic peptide of dHSA]”, 0.36 Per cent. On the same count and under the same terms, under “CCAAADPHECYAK [384-396, tryptic peptide of dHSA]” stands 0.32 Per cent. For the substance “YLSVVLNQLCVLHEK TPVS DRVTKC CTESLVNRRP CFSALEV”, the Per cent adsorbed under setting [2] is listed as 0.37 Per cent. For “DDKETCFAEEGKKLVAASQAALGL [ASP-N fragment of dHSA]”, the Per cent adsobed (ASP-DHSA) is reported as 1.00 Per cent. Take “YICENQDSISSK [287-298, tryptic peptide of dHSA]”: under setting [1], the Per cent adsorbed was 0.03 Per cent. “DKLCTVATLRETYGEM [ASP-N fragment of dHSA]”: for the setting “ASP-DHSA”, the Per cent adsobed turned out to be 0.65 Per cent.

“LAKYICE NQDSISSKLK ECCEKPLLEK SHCIAEVEN (LAKYICENQDSISSKLKECCEKPLLEKSHCIAEVEN) [ASP-N fragment of dHSA]” gave a Per cent adsorbed under setting [2] of 1.00 Per cent. On the same count and under the same terms, the result for “LGE ENFKALVLIAFAQYLQQCPFEDHVKLVNEVTEFAKTCVA (LGEENFKALVLIAFAQYLQQCPFEDHVKLVNEVTEFAKTCVA; HOMO SAPIENS) [ASP-N fragment of dHSA]” reads 1.00 Per cent.

Values taken from patent publication US9796777B2, “Methods of treating malignant tumors” (Canimguide Therapeutics AB, priority 2007, dated 2017).
